Reference: US20230210999A1, “TARGETED PROTEASE DEGRADATION (TED) PLATFORM” (EUBULUS BIOTHERAPEUTICS INC., priority 2020, published 2023)

Assays:
[1] = system: Daudi cells; experiment: Cell proliferation experiment, Daudi; type: cell-based, human; settings: Homo sapiens, Daudi, 72 h, Daudi cells, 72 h; read-out: Inhibitory activity IC50 of tested compounds on Daudi cells
Outline: (§1)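 Log-phase cells were seeded in 96-well plates and exposed to compound in complete medium over a 5-fold dilution series, in duplicate, for 72 h. Alamar blue fluorescence was read per well and IC50 was obtained by four-parameter curve fitting.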

[2] = system: MV4;11 cells; experiment: Cell proliferation experiment (Alamar blue, 72 h), MV4;11; type: cell-based, human; settings: Homo sapiens, MV4-11, 72 h, MV4;11 cells, 72 h; read-out: Inhibitory activity IC50 of tested compounds on MV4;11 cells
Outline: as §1

[3] = system: U-87MG cells; experiment: Cell proliferation experiment, U-87MG; type: cell-based; settings: Homo sapiens; U-87MG cells, 72 h; read-out: Inhibitory activity IC50 of tested compounds on U-87MG cells
Experimental: (§2) Reagents: RPMI-1640 medium, McCoy's 5A medium, IMDM medium, MEM medium, L-15 medium, fetal bovine serum. Penicillin-Streptomycin double antibody, trypsin, etc., 2-mercaptoethanol, NEAA, pyruvate, etc.
(§3) The cells were cultured in conventional ways, and the cells should be passed at least 2 generations before plating. Cells at the logarithmic growth phase were collected, prepared into single cell suspensions and counted. The concentration of cells was adjusted to the desired concentration, and cells were inoculated into a 96-well cell culture plate at 100 μl per well. 100 μL of complete medium of the test compound were added to each well, set up 2 duplicate wells for each concentration, and diluted with a 5-fold gradient, and continued to culture for 72 h. All cells were subjected to IC50 test for corresponding samples. The experimental results are shown in Test Example 4.
(§4) The fluorescence intensity of each well was detected using the Alarm blue method, and IC50 was calculated.
(§5) IC50 was calculated according to the following formula:
(§6) Y=Max+(Min−Max)/[1+(X/IC50)×Slope]
(§7) wherein Min, Max and Slope represent the minimum, maximum and slope respectively.

[4] = system: NCIH82 cells; experiment: Cell proliferation experiment, NCI-H82; type: cell-based, human; settings: Homo sapiens, NCI-H82, 72 h, NCIH82 cells, 72 h; read-out: Inhibitory activity IC50 of tested compounds on NCIH82 cells
Outline: as §1

[5] = system: HT-29 cells; experiment: Cell proliferation experiment, HT-29; type: cell-based; settings: Homo sapiens; HT-29 cells, 72 h; read-out: Inhibitory activity IC50 of tested compounds on HT-29 cells
Experimental: as §2, §3, §4, §5, §6, §7

Structure (SMILES) | IC50 [1] | IC50 [2] | IC50 [3] | IC50 [4] | IC50 [5]
CC[C@@H]1C(=O)N(C)c2cnc(Nc3ccc(C(=O)NC4CCN(CCOCCOC[C@@H](N)C(=O)Nc5cccc6c5CC(C5CCC(=O)NC5=O)C6=O)CC4)cc3OC)nc2N1C1CCCC1 (stereo partly shown) [Compound 872] | > 1 µM | 0.1 to 1 µM | > 1 µM | ≤ 1 µM | > 1 µM
CC[C@@H]1C(=O)N(C)c2cnc(Nc3ccc(C(=O)NC4CCN(CCOCCNCC#Cc5cccc6c5CN(C5CCC(=O)NC5=O)C6=O)CC4)cc3OC)nc2N1C1CCCC1 (stereo partly shown) [Compound 873] | 0.1 to 1 µM | ≤ 0.1 µM | 0.1 to 0.5 µM | ≤ 1 µM | ≤ 0.3 µM
CC[C@@H]1C(=O)N(C)c2cnc(Nc3ccc(C(=O)NC4CCN(C[C@H](N)COCC#Cc5cccc6c5CN(C5CCC(=O)NC5=O)C6=O)CC4)cc3OC)nc2N1C1CCCC1 (stereo partly shown) [Compound 876] | 0.1 to 1 µM | ≤ 0.1 µM | 0.1 to 0.5 µM | > 1 µM | > 1 µM
CC[C@@H]1C(=O)N(C)c2cnc(Nc3ccc(C(=O)NCCCNCCOCCCC#Cc4cccc5c4CN(C4CCC(=O)NC4=O)C5=O)cc3OC)nc2N1C1CCCC1 (stereo partly shown) [Compound 881] | > 1 µM | 0.1 to 1 µM | > 1 µM | > 1 µM | > 1 µM
CC[C@@H]1C(=O)N(C)c2cnc(Nc3ccc(C(=O)NCCCOCCOCCCNCCC#Cc4cccc5c4CN(C4CCC(=O)NC4=O)C5=O)cc3OC)nc2N1C1CCCC1 (stereo partly shown) [Compound 882] | 0.1 to 1 µM | ≤ 0.1 µM | ≤ 0.1 µM | ≤ 1 µM | 0.3 to 1 µM
CC[C@@H]1C(=O)N(C)c2cnc(Nc3ccc(C(=O)NCCCNCCOCCC#Cc4cccc5c4CN(C4CCC(=O)NC4=O)C5=O)cc3OC)nc2N1C1CCCC1 (stereo partly shown) [Compound 885] | 0.1 to 1 µM | ≤ 0.1 µM | 0.1 to 0.5 µM | > 1 µM | > 1 µM
CC[C@@H]1C(=O)N(C)c2cnc(Nc3ccc(C(=O)NCCCN(C)CCOCCC#Cc4cccc5c4CN(C4CCC(=O)NC4=O)C5=O)cc3OC)nc2N1C1CCCC1 (stereo partly shown) [Compound 886] | 0.1 to 1 µM | ≤ 0.1 µM | ≤ 0.1 µM | > 1 µM | > 1 µM
CC[C@@H]1C(=O)N(C)c2cnc(Nc3ccc(C(=O)NCCOCCOCCCNCCC#Cc4cccc5c4CN(C4CCC(=O)NC4=O)C5=O)cc3OC)nc2N1C1CCCC1 (stereo partly shown) [Compound 894] | 0.1 to 1 µM | ≤ 0.1 µM | 0.1 to 0.5 µM | > 1 µM | > 1 µM
CC[C@@H]1C(=O)N(C)c2cnc(Nc3ccc(C(=O)NCCCNCCOCCOCCC#Cc4cccc5c4CN(C4CCC(=O)NC4=O)C5=O)cc3OC)nc2N1C1CCCC1 (stereo partly shown) [Compound 898] | > 1 µM | ≤ 0.1 µM | 0.1 to 0.5 µM | > 1 µM | > 1 µM
CC[C@@H]1C(=O)N(C)c2cnc(Nc3ccc(C(=O)NC4CCN(CCCOCCCNCCC#Cc5cccc6c5CN(C5CCC(=O)NC5=O)C6=O)CC4)cc3OC)nc2N1C1CCCC1 (stereo partly shown) [Compound 906] | 0.1 to 1 µM | ≤ 0.1 µM | 0.1 to 0.5 µM | ≤ 1 µM | 0.3 to 1 µM
CC[C@@H]1C(=O)N(C)c2cnc(Nc3ccc(C(=O)NC4CCN(CCCNCCOCCCC#Cc5cccc6c5CN(C5CCC(=O)NC5=O)C6=O)CC4)cc3OC)nc2N1C1CCCC1 (stereo partly shown) [Compound 907] | ≤ 0.1 µM | ≤ 0.1 µM | 0.1 to 0.5 µM | ≤ 1 µM | 0.3 to 1 µM
CC[C@@H]1C(=O)N(C)c2cnc(Nc3ccc(C(=O)NC4CCN(CCOCCCNCCC#Cc5cccc6c5CN(C5CCC(=O)NC5=O)C6=O)CC4)cc3OC)nc2N1C1CCCC1 (stereo partly shown) [Compound 908] | ≤ 0.1 µM | ≤ 0.1 µM | 0.1 to 0.5 µM | ≤ 1 µM | 0.3 to 1 µM

Other lines, results leading:

IC50 [1] | IC50 [2] | IC50 [3] | IC50 [4] | IC50 [5] | Structure (SMILES)
≤ 0.1 µM | ≤ 0.1 µM | ≤ 0.1 µM | ≤ 1 µM | ≤ 0.3 µM | CC[C@@H]1C(=O)N(C)c2cnc(Nc3ccc(C(=O)NC4CCN(CCCCNCCC#Cc5cccc6c5CN(C5CCC(=O)NC5=O)C6=O)CC4)cc3OC)nc2N1C1CCCC1 (stereo partly shown) [Compound 909]
≤ 0.1 µM | ≤ 0.1 µM | 0.1 to 0.5 µM | ≤ 1 µM | ≤ 0.3 µM | CC[C@@H]1C(=O)N(C)c2cnc(Nc3ccc(C(=O)NC4CCN(CCCCN(C)CCC#Cc5cccc6c5CN(C5CCC(=O)NC5=O)C6=O)CC4)cc3OC)nc2N1C1CCCC1 (stereo partly shown) [Compound 910]
≤ 0.1 µM | ≤ 0.1 µM | ≤ 0.1 µM | ≤ 1 µM | 0.3 to 1 µM | CC[C@@H]1C(=O)N(C)c2cnc(Nc3ccc(C(=O)NC4CCN(CCCN(C)CCCOCCCC#Cc5cccc6c5CN(C5CCC(=O)NC5=O)C6=O)CC4)cc3OC)nc2N1C1CCCC1 (stereo partly shown) [Compound 911]
≤ 0.1 µM | ≤ 0.1 µM | ≤ 0.1 µM | ≤ 1 µM | 0.3 to 1 µM | CC[C@@H]1C(=O)N(C)c2cnc(Nc3ccc(C(=O)NCCCOCCCNCCC#Cc4cccc5c4CN(C4CCC(=O)NC4=O)C5=O)cc3OC)nc2N1C1CCCC1 (stereo partly shown) [Compound 912]
≤ 0.1 µM | ≤ 0.1 µM | ≤ 0.1 µM | ≤ 1 µM | 0.3 to 1 µM | CC[C@@H]1C(=O)N(C)c2cnc(Nc3ccc(C(=O)NCCCOCCCN(C)CCC#Cc4cccc5c4CN(C4CCC(=O)NC4=O)C5=O)cc3OC)nc2N1C1CCCC1 (stereo partly shown) [Compound 913]
≤ 0.1 µM | ≤ 0.1 µM | 0.1 to 0.5 µM | ≤ 1 µM | ≤ 0.3 µM | CC[C@@H]1C(=O)N(C)c2cnc(Nc3ccc(C(=O)NC4CCN(CCCOCCCN(C)CCC#Cc5cccc6c5CN(C5CCC(=O)NC5=O)C6=O)CC4)cc3OC)nc2N1C1CCCC1 (stereo partly shown) [Compound 914]
≤ 0.1 µM | ≤ 0.1 µM | 0.1 to 0.5 µM | ≤ 1 µM | 0.3 to 1 µM | CC[C@@H]1C(=O)N(C)c2cnc(Nc3ccc(C(=O)NC4CCN(CCOCCCNCCCC#Cc5cccc6c5CN(C5CCC(=O)NC5=O)C6=O)CC4)cc3OC)nc2N1C1CCCC1 (stereo partly shown) [Compound 915]
≤ 0.1 µM | ≤ 0.1 µM | 0.1 to 0.5 µM | ≤ 1 µM | ≤ 0.3 µM | CC[C@@H]1C(=O)N(C)c2cnc(Nc3ccc(C(=O)NC4CCN(CCOCCCN(C)CCC#Cc5cccc6c5CN(C5CCC(=O)NC5=O)C6=O)CC4)cc3OC)nc2N1C1CCCC1 (stereo partly shown) [Compound 916]
≤ 0.1 µM | ≤ 0.1 µM | 0.1 to 0.5 µM | ≤ 1 µM | 0.3 to 1 µM | CC[C@@H]1C(=O)N(C)c2cnc(Nc3ccc(C(=O)NC4CCN(CCCOCCCNCCCC#Cc5cccc6c5CN(C5CCC(=O)NC5=O)C6=O)CC4)cc3OC)nc2N1C1CCCC1 (stereo partly shown) [Compound 917]
≤ 0.1 µM | ≤ 0.1 µM | 0.1 to 0.5 µM | ≤ 1 µM | 0.3 to 1 µM | CC[C@@H]1C(=O)N(C)c2cnc(Nc3ccc(C(=O)NC4CCN(CCCOCCNCCCC#Cc5cccc6c5CN(C5CCC(=O)NC5=O)C6=O)CC4)cc3OC)nc2N1C1CCCC1 (stereo partly shown) [Compound 918]
0.1 to 1 µM | ≤ 0.1 µM | 0.5 to 1 µM | ≤ 1 µM | > 1 µM | CC[C@@H]1C(=O)N(C)c2cnc(Nc3ccc(C(=O)NC4CN(CCCOCCCNCCC#Cc5cccc6c5CN(C5CCC(=O)NC5=O)C6=O)C4)cc3OC)nc2N1C1CCCC1 (stereo partly shown) [Compound 931]
